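The compound was tested at five concentrations on cells cultured in 96-well plates, with a 48-hour exposure period. GI50 = concentration required for 50% inhibition of growth.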 The source made the active and inactive calls. Rule as the data show it: active = GI50 up to about 1.1 µM and inactive = higher.
Tests used:
Assay in all cases: NCI tumour cell line growth inhibition, 48 h
HL-60 = system: HL-60
OVCAR-3 = system: OVCAR-3
UACC-257 = system: UACC-257
LOX IMVI = system: LOX IMVI
SF-539 = system: SF-539
HOP-92 = system: HOP-92
NCI-H226 = system: NCI-H226
UACC-62 = system: UACC-62
HT-29 = system: HT-29
NCI-H522 = system: NCI-H522
RXF 631 = system: RXF 631
ACHN = system: ACHN
TK-10 = system: TK-10
A549 = system: A549
SF-268 = system: SF-268
HCT-116 = system: HCT-116
SF-295 = system: SF-295
HOP-18 = system: HOP-18
OVCAR-5 = system: OVCAR-5
SK-MEL-5 = system: SK-MEL-5
SN12C = system: SN12C
Malme-3M = system: Malme-3M
RXF 393 = system: RXF 393
SNB-75 = system: SNB-75
SR = system: SR
DLD-1 = system: DLD-1
U-251 = system: U-251
SNB-19 = system: SNB-19
MOLT-4 = system: MOLT-4
OVCAR-8 = system: OVCAR-8
EKVX = system: EKVX
K562 = system: K562
NCI-H460 = system: NCI-H460
786-0 = system: 786-0
IGROV-1 = system: IGROV-1
SK-OV-3 = system: SK-OV-3
HOP-62 = system: HOP-62
LXFL 529 = system: LXFL 529
A498 = system: A498
SW-620 = system: SW-620
CAKI-1 = system: CAKI-1
DMS-114 = system: DMS-114
OVCAR-4 = system: OVCAR-4
SNB-78 = system: SNB-78
COLO 205 = system: COLO 205
M14 = system: M14
NCI-H23 = system: NCI-H23
KM-20L2 = system: KM-20L2
HCT-15 = system: HCT-15
SK-MEL-28 = system: SK-MEL-28
KM12 = system: KM12
CCRF-CEM = system: CCRF-CEM
MCF7 = system: MCF7
MDA-MB-435 = system: MDA-MB-435
DMS-273 = system: DMS-273
BT-549 = system: BT-549
M19-MEL = system: M19-MEL
PC-3 = system: PC-3
MDA-MB-231 = system: MDA-MB-231
T47D = system: T47D
MDA-N = system: MDA-N
SK-MEL-2 = system: SK-MEL-2
DU-145 = system: DU-145
HCC 2998 = system: HCC 2998
UO-31 = system: UO-31
Hs-578T = system: Hs-578T

Question: Which results are given for `COC1OC(CO)C(O)C1N` (stereo unspecified)?
Answer: GI50 (HL-60): > 100 µM (inactive); GI50 (OVCAR-3): > 100 µM (inactive); GI50 (UACC-257): > 100 µM (inactive); GI50 (LOX IMVI): > 100 µM (inactive); GI50 (SF-539): > 100 µM (inactive); GI50 (HOP-92): > 100 µM (inactive); GI50 (NCI-H226): > 100 µM (inactive); GI50 (UACC-62): > 100 µM (inactive); GI50 (HT-29): > 100 µM (inactive); GI50 (NCI-H522): > 100 µM (inactive); GI50 (RXF 631): > 100 µM (inactive); GI50 (ACHN): > 100 µM (inactive); GI50 (TK-10): > 100 µM (inactive); GI50 (A549): > 100 µM (inactive); GI50 (SF-268): > 100 µM (inactive); GI50 (HCT-116): > 100 µM (inactive); GI50 (SF-295): > 100 µM (inactive); GI50 (HOP-18): > 100 µM (inactive); GI50 (OVCAR-5): > 100 µM (inactive); GI50 (SK-MEL-5): > 100 µM (inactive); GI50 (SN12C): > 100 µM (inactive); GI50 (Malme-3M): > 100 µM (inactive); GI50 (RXF 393): > 100 µM (inactive); GI50 (SNB-75): > 100 µM (inactive); GI50 (SR): > 100 µM (inactive); GI50 (DLD-1): > 100 µM (inactive); GI50 (U-251): > 100 µM (inactive); GI50 (SNB-19): > 100 µM (inactive); GI50 (MOLT-4): > 100 µM (inactive); GI50 (OVCAR-8): > 100 µM (inactive); GI50 (EKVX): > 100 µM (inactive); GI50 (K562): > 100 µM (inactive); GI50 (NCI-H460): > 100 µM (inactive); GI50 (786-0): > 100 µM (inactive); GI50 (IGROV-1): > 100 µM (inactive); GI50 (SK-OV-3): > 100 µM (inactive); GI50 (HOP-62): > 100 µM (inactive); GI50 (LXFL 529): > 100 µM (inactive); GI50 (A498): > 100 µM (inactive); GI50 (SW-620): > 100 µM (inactive); GI50 (CAKI-1): > 100 µM (inactive); GI50 (DMS-114): > 100 µM (inactive); GI50 (OVCAR-4): > 100 µM (inactive); GI50 (SNB-78): > 100 µM (inactive); GI50 (COLO 205): > 100 µM (inactive); GI50 (M14): > 100 µM (inactive); GI50 (NCI-H23): > 100 µM (inactive); GI50 (KM-20L2): > 100 µM (inactive); GI50 (HCT-15): > 100 µM; GI50 (SK-MEL-28): > 100 µM (inactive); GI50 (KM12): > 100 µM (inactive); GI50 (CCRF-CEM): > 100 µM (inactive)

Question: For `C=C(C)C(=O)OC1CC2=CC(CC3(C)OC3C3OC(=O)C(=C)C13)OC2=O` (stereo unspecified), which GI50 (HL-60) is on record?
Answer: Its GI50 is 1.12 µM (active).

Question: What about the GI50 (OVCAR-3) of the same molecule?
Answer: The GI50 was 10.7 µM (inactive).

Question: What about the GI50 (UACC-257) of the same molecule?
Answer: The GI50 was 5.41 µM (inactive).

Question: And the GI50 (LOX IMVI)?
Answer: The GI50 was 4.14 µM (inactive).

Question: And the GI50 (MCF7)?
Answer: The GI50 was 3.81 µM (inactive).

Question: And the GI50 (SF-539)?
Answer: Its GI50 is 10.9 µM (inactive).

Question: What about the GI50 (HOP-92) of the same molecule?
Answer: Its GI50 is 2.9 µM (inactive).

Question: And the GI50 (NCI-H226)?
Answer: Its GI50 is 22.2 µM (inactive).

Question: What about the GI50 (UACC-62) of the same molecule?
Answer: Its GI50 is 9.18 µM (inactive).

Question: And the GI50 (MDA-MB-435)?
Answer: Its GI50 is 15.2 µM (inactive).

Question: And the GI50 (HT-29)?
Answer: The GI50 was 6.97 µM (inactive).

Question: What about the GI50 (DMS-273) of the same molecule?
Answer: The GI50 was 12.9 µM (inactive).

Question: And the GI50 (BT-549)?
Answer: Its GI50 is 11.8 µM (inactive).

Question: What about the GI50 (M19-MEL) of the same molecule?
Answer: Its GI50 is 6.62 µM (inactive).

Question: And the GI50 (NCI-H522)?
Answer: The GI50 was 1.92 µM (inactive).

Question: What about the GI50 (RXF 631) of the same molecule?
Answer: Its GI50 is 15.8 µM (inactive).

Question: What about the GI50 (ACHN) of the same molecule?
Answer: Its GI50 is 5.41 µM (inactive).

Question: What about the GI50 (PC-3) of the same molecule?
Answer: Its GI50 is 14.7 µM (inactive).

Question: What about the GI50 (TK-10) of the same molecule?
Answer: The GI50 was 7.73 µM (inactive).

Question: What about the GI50 (A549) of the same molecule?
Answer: The GI50 was 18.6 µM (inactive).

Question: And the GI50 (SF-268)?
Answer: Its GI50 is 20.7 µM (inactive).

Question: And the GI50 (HCT-116)?
Answer: Its GI50 is 5.01 µM (inactive).

Question: What about the GI50 (SF-295) of the same molecule?
Answer: The GI50 was 18.6 µM (inactive).

Question: And the GI50 (HOP-18)?
Answer: The GI50 was 19.9 µM (inactive).

Question: What about the GI50 (OVCAR-5) of the same molecule?
Answer: The GI50 was 20 µM (inactive).

Question: And the GI50 (MDA-MB-231)?
Answer: Its GI50 is 18.1 µM (inactive).

Question: And the GI50 (SK-MEL-5)?
Answer: The GI50 was 16.9 µM (inactive).

Question: What about the GI50 (SN12C) of the same molecule?
Answer: Its GI50 is 13.7 µM (inactive).

Question: And the GI50 (T47D)?
Answer: The GI50 was 4.67 µM (inactive).

Question: What about the GI50 (Malme-3M) of the same molecule?
Answer: The GI50 was 4.23 µM (inactive).

Question: And the GI50 (MDA-N)?
Answer: The GI50 was > 10 µM (inactive).

Question: And the GI50 (RXF 393)?
Answer: The GI50 was 2.9 µM (inactive).

Question: What about the GI50 (SNB-75) of the same molecule?
Answer: Its GI50 is 14.7 µM (inactive).

Question: And the GI50 (SR)?
Answer: The GI50 was 2.51 µM (inactive).

Question: What about the GI50 (DLD-1) of the same molecule?
Answer: The GI50 was 1.99 µM (inactive).

Question: What about the GI50 (U-251) of the same molecule?
Answer: The GI50 was 17.4 µM (inactive).

Question: And the GI50 (SNB-19)?
Answer: The GI50 was 18.5 µM (inactive).

Question: What about the GI50 (MOLT-4) of the same molecule?
Answer: The GI50 was 1.84 µM (inactive).

Question: And the GI50 (OVCAR-8)?
Answer: The GI50 was 9.66 µM (inactive).

Question: What about the GI50 (EKVX) of the same molecule?
Answer: Its GI50 is 15 µM (inactive).

Question: What about the GI50 (NCI-H460) of the same molecule?
Answer: The GI50 was 17.9 µM (inactive).

Question: What about the GI50 (786-0) of the same molecule?
Answer: The GI50 was 7.24 µM (inactive).

Question: What about the GI50 (IGROV-1) of the same molecule?
Answer: Its GI50 is 19.3 µM (inactive).

Question: What about the GI50 (SK-OV-3) of the same molecule?
Answer: The GI50 was 18.8 µM (inactive).

Question: And the GI50 (SK-MEL-2)?
Answer: The GI50 was 12.9 µM (inactive).

Question: What about the GI50 (HOP-62) of the same molecule?
Answer: The GI50 was 22.4 µM (inactive).

Question: And the GI50 (DU-145)?
Answer: The GI50 was 23.7 µM (inactive).

Question: What about the GI50 (LXFL 529) of the same molecule?
Answer: Its GI50 is 2.51 µM (inactive).

Question: And the GI50 (A498)?
Answer: Its GI50 is 16.6 µM (inactive).

Question: And the GI50 (SW-620)?
Answer: The GI50 was 2.24 µM (inactive).

Question: And the GI50 (CAKI-1)?
Answer: The GI50 was 4.58 µM (inactive).

Question: What about the GI50 (HCC 2998) of the same molecule?
Answer: The GI50 was 20 µM (inactive).

Question: What about the GI50 (DMS-114) of the same molecule?
Answer: Its GI50 is 15.2 µM (inactive).

Question: And the GI50 (OVCAR-4)?
Answer: Its GI50 is 12.6 µM (inactive).

Question: What about the GI50 (SNB-78) of the same molecule?
Answer: Its GI50 is 12.1 µM (inactive).

Question: And the GI50 (COLO 205)?
Answer: Its GI50 is 2.91 µM (inactive).

Question: And the GI50 (M14)?
Answer: Its GI50 is 4.41 µM (inactive).

Question: What about the GI50 (NCI-H23) of the same molecule?
Answer: The GI50 was 15.4 µM (inactive).

Question: And the GI50 (KM-20L2)?
Answer: The GI50 was 15 µM (inactive).

Question: What about the GI50 (HCT-15) of the same molecule?
Answer: The GI50 was 8.07 µM.

Question: What about the GI50 (UO-31) of the same molecule?
Answer: Its GI50 is 13.1 µM (inactive).

Question: What about the GI50 (Hs-578T) of the same molecule?
Answer: Its GI50 is 22.6 µM (inactive).

Question: What about the GI50 (SK-MEL-28) of the same molecule?
Answer: The GI50 was 12.3 µM (inactive).

Question: What about the GI50 (KM12) of the same molecule?
Answer: The GI50 was 15.6 µM (inactive).

Reference: ChEMBL document CHEMBL1201862, “PubChem BioAssay data set” (2004)
